Results reported in PubChem BioAssay (NCI).
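Protocol summary: plate cells (96-well), add compound at 5 concentrations, incubate 48 h, interpolate endpoints linearly. TGI: total growth inhibition.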

Assays:
Experiment in all cases: DTP human tumour cell line panel, 48 h
[1] = test system: 786-0 renal
[2] = test system: A549 NSCLC
[3] = test system: ACHN renal
[4] = test system: CCRF-CEM leukemia
[5] = test system: COLO 205 colon
[6] = test system: DLD-1 colon
[7] = test system: DMS 114 small cell lung
[8] = test system: DMS 273 small cell lung
[9] = test system: EKVX NSCLC
[10] = test system: HCC-2998 colon
[11] = test system: HCT-116 colon
[12] = test system: HCT-15 colon
[13] = test system: HL-60(TB) leukemia
[14] = test system: HOP-62 NSCLC
[15] = test system: HT29 colon
[16] = test system: IGROV1 ovarian
[17] = test system: K-562 leukemia
[18] = test system: KM12 colon
[19] = test system: KM20L2 colon
[20] = test system: LOX IMVI melanoma
[21] = test system: LXFL 529 NSCLC
[22] = test system: M14 melanoma
[23] = test system: M19-MEL melanoma
[24] = test system: MOLT-4 leukemia
[25] = test system: NCI-H226 lung
[26] = test system: NCI-H23 lung
[27] = test system: NCI-H460 lung
[28] = test system: OVCAR-3 ovarian
[29] = test system: OVCAR-4 ovarian
[30] = test system: OVCAR-5 ovarian
[31] = test system: OVCAR-8 ovarian
[32] = test system: RPMI-8226 leukemia
[33] = test system: RXF 393 renal
[34] = test system: SF-268 CNS
[35] = test system: SF-295 CNS
[36] = test system: SF-539 CNS
[37] = test system: SK-MEL-28 melanoma
[38] = test system: SK-MEL-5 melanoma
[39] = test system: SK-OV-3 ovarian
[40] = test system: SN12C renal
[41] = test system: SNB-19 CNS
[42] = test system: SNB-75 CNS
[43] = test system: SNB-78 CNS
[44] = test system: SR leukemia
[45] = test system: SW-620 colon
[46] = test system: TK-10 renal
[47] = test system: U251 CNS
[48] = test system: UACC-257 melanoma
[49] = test system: UACC-62 melanoma
[50] = test system: UO-31 renal
[51] = test system: A498 renal
[52] = test system: CAKI-1 renal
[53] = test system: HOP-18 NSCLC
[54] = test system: MALME-3M melanoma
[55] = test system: NCI-H522 lung
[56] = test system: SK-MEL-2 melanoma
[57] = test system: BT-549 breast
[58] = test system: DU-145 prostate
[59] = test system: HOP-92 NSCLC
[60] = test system: HS 578T breast
[61] = test system: MCF7 breast
[62] = test system: MDA-MB-231 breast
[63] = test system: MDA-MB-435
[64] = test system: MDA-N
[65] = test system: NCI/ADR-RES ovarian
[66] = test system: PC-3 prostate
[67] = test system: T-47D breast
[68] = test system: RXF-631 renal

`COC(=O)CCCN(C)c1n[nH]c(N)n1` was tested, and the TGI [1] was greater than 100 µM, the TGI [2] was greater than 100 µM and the TGI [3] was greater than 100 µM. For the same compound, the TGI [4] was greater than 100 µM, the TGI [5] was greater than 100 µM and the TGI [6] was greater than 100 µM. The TGI [7] was greater than 100 µM, the TGI [8] was greater than 100 µM and the TGI [9] was greater than 100 µM. It also gave a TGI [10] greater than 100 µM, a TGI [11] greater than 100 µM and a TGI [12] greater than 100 µM. The TGI [13] was greater than 100 µM, the TGI [14] was greater than 100 µM and the TGI [15] was greater than 100 µM. It also gave a TGI [16] greater than 100 µM, a TGI [17] greater than 100 µM and a TGI [18] greater than 100 µM. It also gave a TGI [19] greater than 100 µM, a TGI [20] greater than 100 µM and a TGI [21] greater than 100 µM. The TGI [22] was greater than 100 µM, the TGI [23] was greater than 100 µM and the TGI [24] was greater than 100 µM. The TGI [25] was greater than 100 µM, the TGI [26] was greater than 100 µM and the TGI [27] was greater than 100 µM. For the same compound, the TGI [28] was greater than 100 µM, the TGI [29] was greater than 100 µM and the TGI [30] was greater than 100 µM. The TGI [31] was greater than 100 µM, the TGI [32] was greater than 100 µM and the TGI [33] was greater than 100 µM. For the same compound, the TGI [34] was greater than 100 µM, the TGI [35] was greater than 100 µM and the TGI [36] was greater than 100 µM. It also gave a TGI [37] greater than 100 µM, a TGI [38] greater than 100 µM and a TGI [39] greater than 100 µM. It also gave a TGI [40] greater than 100 µM, a TGI [41] greater than 100 µM and a TGI [42] greater than 100 µM. The TGI [43] was greater than 100 µM, the TGI [44] was greater than 100 µM and the TGI [45] was greater than 100 µM. For the same compound, the TGI [46] was greater than 100 µM, the TGI [47] was greater than 100 µM and the TGI [48] was greater than 100 µM. For the same compound, the TGI [49] was greater than 100 µM and the TGI [50] was greater than 100 µM.
`CN(C)CCNC(=O)c1cc2ccccc2c2nc3ccccc3nc12` gave a TGI [1] greater than 38.2 µM, a TGI [51] of 2.4 µM and a TGI [2] greater than 44.4 µM. The TGI [3] was 2.1 µM, the TGI [52] was greater than 21.3 µM and the TGI [5] was greater than 100 µM. It also gave a TGI [6] of 3.59 µM, a TGI [7] of 2.43 µM and a TGI [8] greater than 100 µM. For the same compound, the TGI [9] was 7.37 µM, the TGI [10] was 3.92 µM and the TGI [11] was 1.87 µM. For the same compound, the TGI [12] was 3.24 µM, the TGI [53] was greater than 22.9 µM and the TGI [14] was 5 µM. The TGI [15] was 2.9 µM, the TGI [16] was greater than 20.7 µM and the TGI [17] was 1.96 µM. It also gave a TGI [18] of 2.89 µM, a TGI [19] of 2.93 µM and a TGI [20] of 1.88 µM. It also gave a TGI [21] greater than 22.3 µM, a TGI [23] of 2.67 µM and a TGI [54] of 2.06 µM. For the same compound, the TGI [24] was 0.487 µM, the TGI [25] was 2.44 µM and the TGI [26] was 2.69 µM. The TGI [55] was greater than 100 µM, the TGI [28] was 6.35 µM and the TGI [29] was 2.34 µM. It also gave a TGI [30] of 5.64 µM, a TGI [31] greater than 20.4 µM and a TGI [32] of 3.42 µM. The TGI [33] was 2.33 µM, the TGI [34] was 2.02 µM and the TGI [36] was 1.55 µM. The TGI [56] was 2.81 µM, the TGI [37] was 2.96 µM and the TGI [38] was 5.5 µM. The TGI [39] was greater than 31.6 µM, the TGI [40] was 3.89 µM and the TGI [41] was 8.2 µM. It also gave a TGI [42] of 4.26 µM, a TGI [43] of 16.4 µM and a TGI [44] of 3.68 µM. For the same compound, the TGI [46] was 7.17 µM, the TGI [47] was 4.92 µM and the TGI [48] was 3.09 µM. It also gave a TGI [49] of 7.3 µM.
`COC1=C2CC(C)CC(OC)[C@@H](OC(=O)CCN)[C@H](C)/C=C(\C)C(OC(N)=O)C(OC)/C=C\C=C(/C)C(=O)NC(=CC1=O)C2=O` (stereo partly drawn) gave a TGI [1] of 14.2 µM, a TGI [51] of 31.2 µM and a TGI [2] of 29.2 µM. The TGI [3] was 16 µM, the TGI [57] was 16.9 µM and the TGI [52] was 17.7 µM. The TGI [4] was 1.49 µM, the TGI [5] was 0.964 µM and the TGI [58] was 20.8 µM. The TGI [9] was 25 µM, the TGI [10] was 5.69 µM and the TGI [11] was 12.3 µM. For the same compound, the TGI [12] was 13.8 µM, the TGI [13] was 0.757 µM and the TGI [14] was 15.4 µM. For the same compound, the TGI [59] was 2.05 µM, the TGI [60] was 16.9 µM and the TGI [15] was 13.1 µM. For the same compound, the TGI [16] was 3.25 µM, the TGI [18] was 8.36 µM and the TGI [20] was 2.22 µM. It also gave a TGI [22] of 19.5 µM, a TGI [54] of 16.3 µM and a TGI [61] of 2.03 µM. For the same compound, the TGI [62] was 7.47 µM, the TGI [63] was 6.96 µM and the TGI [64] was 12.7 µM. The TGI [24] was 2.53 µM, the TGI [25] was 40.6 µM and the TGI [26] was 6.22 µM. The TGI [27] was 24.4 µM, the TGI [55] was 0.658 µM and the TGI [65] was 34.5 µM. The TGI [28] was 8.19 µM, the TGI [29] was 12.6 µM and the TGI [30] was 21.1 µM. For the same compound, the TGI [31] was 15.5 µM, the TGI [66] was 15.1 µM and the TGI [32] was 14.5 µM. The TGI [33] was 17.5 µM, the TGI [34] was 26.2 µM and the TGI [35] was 30.1 µM. It also gave a TGI [36] of 14.9 µM, a TGI [56] of 22.7 µM and a TGI [37] of 5.22 µM. The TGI [38] was 15.2 µM, the TGI [39] was 25.4 µM and the TGI [40] was 14.2 µM. The TGI [41] was 20.4 µM, the TGI [42] was 35.1 µM and the TGI [44] was 8.71 µM. The TGI [45] was 1.48 µM, the TGI [67] was 1.68 µM and the TGI [46] was 20.4 µM. The TGI [47] was 6.19 µM, the TGI [48] was 2.82 µM and the TGI [49] was 4.34 µM. It also gave a TGI [50] of 16.3 µM.
With `CCCCCCC(=O)OC[n+]1ccc2c(C)c3[nH]c4ccccc4c3c(C)c2c1` the TGI [51] was 2.19 µM, the TGI [3] was 12.4 µM and the TGI [52] was 6.55 µM. For the same compound, the TGI [13] was greater than 100 µM, the TGI [14] was 24.7 µM and the TGI [59] was 23.9 µM. For the same compound, the TGI [16] was 30.8 µM, the TGI [19] was 2.96 µM and the TGI [24] was 12.7 µM. The TGI [30] was 3.6 µM, the TGI [32] was 1.69 µM and the TGI [33] was 2.26 µM. For the same compound, the TGI [68] was greater than 100 µM, the TGI [34] was 2.52 µM and the TGI [56] was 37.8 µM. It also gave a TGI [37] of 3.1 µM, a TGI [39] of 6.31 µM and a TGI [44] of 8.77 µM. For the same compound, the TGI [46] was 14.3 µM, the TGI [49] was 16.4 µM and the TGI [50] was 26 µM.
